Test results as given in patent publication US12351570B2 (MERCK PATENT GMBH, priority 2018, dated 2025).

System: MDA-MB-231 cells
Test: Extracellular lactate production inhibition after 4 h, MDA-MB-231
Conditions: Homo sapiens, MDA-MB-231

Row | IC50 [nM] | Compound
1 | 100 to 1000 | COc1ccc(S(=O)(=O)Nc2ccccc2C#Cc2cnc(C(=O)O)c3ccccc23)c2ncccc12 [Compound 209, 4-{2-[2-(5-methoxyquinoline-8-sulfonamido)phenyl]ethynyl}isoquinoline-1-carboxylic acid]
2 | 100 to 1000 | Cc1ccc2cccnc2c1S(=O)(=O)Nc1ccccc1C#Cc1cnc(C(=O)O)c(N(C)C)c1 [Compound 163, 3-(dimethylamino)-5-{2-[2-(7-methylquinoline-8-sulfonamido)-phenyl]ethynyl}pyridine-2-carboxylic acid]
3 | 1 to 10 | COc1cc(C(=O)O)ncc1C#Cc1cc(Br)ccc1NS(=O)(=O)c1c(C)ccc2cccnc12 [Compound 352, 5-{2-[5-bromo-2-(7-methylquinoline-8-sulfonamido)phenyl]ethynyl}-4-methoxypyridine-2-carboxylic acid]
4 | 1000 to 100000 | O=C(O)c1ccc(C#Cc2ccccc2NS(=O)(=O)c2c(Cl)nc3sccn23)cn1 [Compound 98, 5-[2-(2-{6-chloroimidazo[2,1-b][1,3]thiazole-5-sulfonamido}phenyl)-ethynyl]pyridine-2-carboxylic acid]
5 | 1000 to 100000 | Cc1ccc2cccnc2c1S(=O)(=O)Nc1ccc(Cl)cc1C#Cc1ccc(C(=O)O)nc1 [Compound 363, 5-{2-[5-chloro-2-(7-methylquinoline-8-sulfonamido)phenyl]ethynyl}pyridine-2-carboxylic acid]
6 | 100 to 1000 | COC(=O)c1ccc(C#Cc2ccccc2NS(=O)(=O)c2ccccc2-c2ccccc2)cn1 [Compound 135, methyl 5-[2-(2-{[1,1′-biphenyl]-2-sulfonamido}phenyl)ethynyl]pyridine-2-carboxylate]
7 | 100 to 1000 | O=C(O)c1ccc(C#Cc2ccccc2NS(=O)(=O)c2ccc3cc(Cl)ccc3c2)cc1 [Compound 43, 4-{2-[2-(6-chloronaphthalene-2-sulfonamido)phenyl]ethynyl}benzoic acid]
8 | 100 to 1000 | Cc1cc(C#Cc2ccccc2NS(=O)(=O)c2ccc3c(c2)Cc2ccccc2-3)cnc1C(=O)O [Compound 118, 5-{2-[2-(9H-fluorene-2-sulfonamido)phenyl]ethynyl}-3-methylpyridine-2-carboxylic acid]
9 | 1000 to 100000 | Cc1cc(C(=O)O)ncc1C#Cc1ccccc1NS(=O)(=O)c1ccc2ccccc2c1 [Compound 50, 4-methyl-5-{2-[2-(naphthalene-2-sulfonamido)phenyl]ethynyl}pyridine-2-carboxylic acid]
10 | 1000 to 100000 | O=C(O)c1c(F)cc(C#Cc2ccccc2NS(=O)(=O)c2ccc3ccccc3c2)cc1F [Compound 29, 2,6-difluoro-4-{2-[2-(naphthalene-2-sulfonamido)phenyl]ethynyl}benzoic acid]
11 | 1000 to 100000 | COc1ccccc1S(C)(=O)=Nc1ccccc1C#Cc1ccc(C(=O)O)nc1 (stereo not drawn) [Compound 433, 5-[2-(2-{[(2-methoxyphenyl)(methyl)oxo-λ6-sulfanylidene]amino}phenyl)ethynyl] pyridine-2-carboxylic acid]
12 | 10 to 100 | O=C(O)c1ccc(C#Cc2ccccc2NS(=O)(=O)c2ccc(-c3ccccc3)cc2)cn1 [Compound 291, 5-[2-(2-{[1,1′-biphenyl]-4-sulfonamido}phenyl)ethynyl]pyridine-2-carboxylic acid]
13 | 1000 to 100000 | COc1ccc(S(=O)(=O)Nc2ccc(Br)cc2C#Cc2ccc(C(=O)N(C)C)nc2)c2ncccc12 [Compound 238, 5-{2-[5-bromo-2-(5-methoxyquinoline-8-sulfonamido)phenyl]ethynyl}-N,N-dimethylpyridine-2-carboxamide]

Row | Compound | IC50 [nM]
14 | Cc1ccc2cccc(S(=O)(=O)Nc3ccccc3C#Cc3ccc(C(=O)O)nc3)c2n1 [Compound 267, 5-[2-(2-Methyl-quinoline-8-sulfonylamino)-phenylethynyl]-pyridine-2-carboxylic acid] | 100 to 1000
15 | Cc1ccnc2c(S(=O)(=O)Nc3ccccc3C#Cc3ccc(C(=O)O)nc3)cccc12 [Compound 264, 5-[2-(4-Methyl-quinoline-8-sulfonyl-amino)-phenylethynyl]-pyridine-2-carboxylic acid] | 100 to 1000
